Experimental data published in the kinase profiling compilation of Christmann-Franck et al. (2016).

What was measured:
Test in all cases: radiometric filter-binding kinase assay
EEF2K (human) = EEF2K (human) (UniProt O00418)
INSRR (human) = INSRR (human) (UniProt P14616)
MAP2K2 (human) = MAP2K2 (human) (UniProt P36507)
MAP3K9 (human) = MAP3K9 (human) (UniProt P80192)
IKBKB (human) = IKBKB (human) (UniProt O14920)
NTRK1 (human) = NTRK1 (human) (UniProt P04629)
CSK (human) = CSK (human) (UniProt P41240)
MYLK (human) = MYLK (human) (UniProt Q15746)
Sequence of MYLK (human) (Q15746 whole entry, looked up): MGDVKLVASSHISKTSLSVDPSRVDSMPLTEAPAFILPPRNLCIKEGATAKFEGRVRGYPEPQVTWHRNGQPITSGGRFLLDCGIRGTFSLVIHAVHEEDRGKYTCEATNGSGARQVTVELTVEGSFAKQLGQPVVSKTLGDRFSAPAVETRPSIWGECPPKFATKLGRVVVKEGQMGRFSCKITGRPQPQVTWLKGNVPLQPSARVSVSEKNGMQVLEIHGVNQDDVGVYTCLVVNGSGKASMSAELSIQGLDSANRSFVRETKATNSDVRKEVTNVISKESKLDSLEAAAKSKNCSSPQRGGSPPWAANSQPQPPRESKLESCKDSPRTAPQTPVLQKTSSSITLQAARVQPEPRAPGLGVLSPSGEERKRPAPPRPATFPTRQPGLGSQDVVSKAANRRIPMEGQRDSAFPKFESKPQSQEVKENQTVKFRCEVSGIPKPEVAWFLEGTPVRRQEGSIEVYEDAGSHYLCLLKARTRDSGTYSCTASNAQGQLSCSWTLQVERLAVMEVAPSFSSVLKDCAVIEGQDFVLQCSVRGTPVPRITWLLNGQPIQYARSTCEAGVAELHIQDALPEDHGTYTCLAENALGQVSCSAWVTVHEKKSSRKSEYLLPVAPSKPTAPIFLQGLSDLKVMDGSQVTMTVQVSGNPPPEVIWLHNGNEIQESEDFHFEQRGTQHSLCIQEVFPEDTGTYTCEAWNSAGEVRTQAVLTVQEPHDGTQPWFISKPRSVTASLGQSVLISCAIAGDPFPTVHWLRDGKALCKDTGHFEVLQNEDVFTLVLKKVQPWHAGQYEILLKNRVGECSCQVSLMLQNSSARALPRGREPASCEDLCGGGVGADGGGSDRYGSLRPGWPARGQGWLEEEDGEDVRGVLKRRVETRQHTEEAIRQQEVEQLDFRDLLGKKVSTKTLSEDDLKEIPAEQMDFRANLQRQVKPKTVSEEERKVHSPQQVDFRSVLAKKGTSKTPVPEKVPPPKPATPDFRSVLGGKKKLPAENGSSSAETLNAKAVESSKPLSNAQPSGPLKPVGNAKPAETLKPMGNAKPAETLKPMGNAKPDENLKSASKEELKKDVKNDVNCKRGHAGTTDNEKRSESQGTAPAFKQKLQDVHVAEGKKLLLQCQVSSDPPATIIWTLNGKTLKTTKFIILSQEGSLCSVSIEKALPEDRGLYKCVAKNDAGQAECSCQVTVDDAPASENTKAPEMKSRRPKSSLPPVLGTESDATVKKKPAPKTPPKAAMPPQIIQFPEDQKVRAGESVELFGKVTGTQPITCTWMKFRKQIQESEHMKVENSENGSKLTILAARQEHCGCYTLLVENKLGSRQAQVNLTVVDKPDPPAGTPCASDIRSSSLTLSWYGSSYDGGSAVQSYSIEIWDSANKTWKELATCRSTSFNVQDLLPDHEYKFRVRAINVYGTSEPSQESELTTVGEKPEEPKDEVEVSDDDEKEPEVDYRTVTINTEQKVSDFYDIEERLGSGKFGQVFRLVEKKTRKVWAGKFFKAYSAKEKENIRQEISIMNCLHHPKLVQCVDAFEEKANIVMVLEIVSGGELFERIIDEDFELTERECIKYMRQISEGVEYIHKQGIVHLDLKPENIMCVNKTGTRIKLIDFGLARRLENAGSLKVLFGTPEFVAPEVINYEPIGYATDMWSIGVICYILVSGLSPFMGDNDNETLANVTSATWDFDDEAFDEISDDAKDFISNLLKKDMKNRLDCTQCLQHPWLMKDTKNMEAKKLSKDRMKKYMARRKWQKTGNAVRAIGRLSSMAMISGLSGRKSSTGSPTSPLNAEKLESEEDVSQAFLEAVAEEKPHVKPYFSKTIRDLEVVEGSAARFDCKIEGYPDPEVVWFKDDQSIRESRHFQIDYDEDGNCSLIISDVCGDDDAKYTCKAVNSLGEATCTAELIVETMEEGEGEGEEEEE

ROCK2 (rat) = settings: accession and sequence are those of the human protein
DAPK1 (human) = DAPK1 (human) (UniProt P53355)
MELK (human) = MELK (human) (UniProt Q14680)
CDK2 CCNA2 (human) = CDK2 CCNA2 (human) (UniProt P20248+P24941)
MAPK13 (human) = MAPK13 (human) (UniProt O15264)
MINK1 (human) = MINK1 (human) (UniProt Q8N4C8)
PHKG1 (human) = PHKG1 (human) (UniProt Q16816)
Sequence of PHKG1 (human) (Q16816 whole entry, looked up): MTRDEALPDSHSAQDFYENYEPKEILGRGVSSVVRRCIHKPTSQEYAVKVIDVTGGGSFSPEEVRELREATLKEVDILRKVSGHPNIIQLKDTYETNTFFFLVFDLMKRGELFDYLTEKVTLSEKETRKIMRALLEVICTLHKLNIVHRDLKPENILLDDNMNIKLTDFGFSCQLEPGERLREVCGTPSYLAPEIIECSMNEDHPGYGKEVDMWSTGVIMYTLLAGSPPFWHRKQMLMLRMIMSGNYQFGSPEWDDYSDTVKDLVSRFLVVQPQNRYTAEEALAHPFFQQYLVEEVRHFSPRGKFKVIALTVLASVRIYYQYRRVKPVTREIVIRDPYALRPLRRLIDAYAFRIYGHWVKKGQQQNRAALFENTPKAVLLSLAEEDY

MARK4 (human) = MARK4 (human) (UniProt Q96L34)
MAPK1 (human) = MAPK1 (human) (UniProt P28482)
RPS6KA1 KD1 KD2 (human) = RPS6KA1 KD1 KD2 (human) (UniProt Q15418)
MKNK2 (human) = MKNK2 (human) (UniProt Q9HBH9)
CSNK2A1 (human) = CSNK2A1 (human) (UniProt P68400)
Sequence of CSNK2A1 (human) (P68400 whole entry, looked up): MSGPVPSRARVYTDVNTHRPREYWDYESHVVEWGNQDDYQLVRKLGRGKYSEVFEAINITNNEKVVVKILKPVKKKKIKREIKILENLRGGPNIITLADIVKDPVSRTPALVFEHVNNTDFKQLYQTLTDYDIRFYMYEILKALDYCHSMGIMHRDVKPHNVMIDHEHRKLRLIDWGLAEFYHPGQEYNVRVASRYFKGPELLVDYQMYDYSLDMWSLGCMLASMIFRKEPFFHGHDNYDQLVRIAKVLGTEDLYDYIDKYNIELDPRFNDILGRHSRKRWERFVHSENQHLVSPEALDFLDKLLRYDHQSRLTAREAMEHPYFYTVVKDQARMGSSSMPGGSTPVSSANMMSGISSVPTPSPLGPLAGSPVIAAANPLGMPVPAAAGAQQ

FGFR1 (human) = FGFR1 (human) (UniProt P11362)
Sequence of FGFR1 (human) (P11362 whole entry, looked up): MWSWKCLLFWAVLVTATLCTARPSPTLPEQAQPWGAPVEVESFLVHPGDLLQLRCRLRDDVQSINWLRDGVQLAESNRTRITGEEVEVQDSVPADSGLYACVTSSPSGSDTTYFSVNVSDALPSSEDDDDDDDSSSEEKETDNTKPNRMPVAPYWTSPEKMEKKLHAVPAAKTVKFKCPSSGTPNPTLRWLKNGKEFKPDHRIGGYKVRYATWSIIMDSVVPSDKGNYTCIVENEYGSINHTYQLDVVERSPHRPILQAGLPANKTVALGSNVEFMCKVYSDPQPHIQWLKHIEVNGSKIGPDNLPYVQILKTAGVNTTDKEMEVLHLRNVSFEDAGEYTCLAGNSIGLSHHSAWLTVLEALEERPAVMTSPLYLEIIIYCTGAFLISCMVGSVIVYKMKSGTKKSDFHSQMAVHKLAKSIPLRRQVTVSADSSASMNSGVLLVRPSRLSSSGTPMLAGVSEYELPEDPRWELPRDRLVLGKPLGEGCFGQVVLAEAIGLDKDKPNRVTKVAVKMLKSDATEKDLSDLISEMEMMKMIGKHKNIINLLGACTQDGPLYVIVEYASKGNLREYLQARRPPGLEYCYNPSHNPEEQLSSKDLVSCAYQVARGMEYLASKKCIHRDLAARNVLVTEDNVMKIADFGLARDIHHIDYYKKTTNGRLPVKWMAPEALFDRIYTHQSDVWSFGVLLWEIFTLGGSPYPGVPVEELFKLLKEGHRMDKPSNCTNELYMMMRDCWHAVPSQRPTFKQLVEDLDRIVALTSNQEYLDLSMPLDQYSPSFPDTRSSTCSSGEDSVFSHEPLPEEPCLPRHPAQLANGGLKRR

MAPKAPK3 (human) = MAPKAPK3 (human) (UniProt Q16644)
SRC (human) = SRC (human) (UniProt P12931)
EPHB3 (human) = EPHB3 (human) (UniProt P54753)
LCK (mouse) = settings: accession and sequence are those of the human protein
AURKB (human) = AURKB (human) (UniProt Q96GD4)
ERBB4 (human) = ERBB4 (human) (UniProt Q15303)
CHEK2 (human) = CHEK2 (human) (UniProt O96017)
GSK3B (human) = GSK3B (human) (UniProt P49841)
MKNK1 (human) = MKNK1 (human) (UniProt Q9BUB5)
Sequence of MKNK1 (human) (Q9BUB5 whole entry, looked up): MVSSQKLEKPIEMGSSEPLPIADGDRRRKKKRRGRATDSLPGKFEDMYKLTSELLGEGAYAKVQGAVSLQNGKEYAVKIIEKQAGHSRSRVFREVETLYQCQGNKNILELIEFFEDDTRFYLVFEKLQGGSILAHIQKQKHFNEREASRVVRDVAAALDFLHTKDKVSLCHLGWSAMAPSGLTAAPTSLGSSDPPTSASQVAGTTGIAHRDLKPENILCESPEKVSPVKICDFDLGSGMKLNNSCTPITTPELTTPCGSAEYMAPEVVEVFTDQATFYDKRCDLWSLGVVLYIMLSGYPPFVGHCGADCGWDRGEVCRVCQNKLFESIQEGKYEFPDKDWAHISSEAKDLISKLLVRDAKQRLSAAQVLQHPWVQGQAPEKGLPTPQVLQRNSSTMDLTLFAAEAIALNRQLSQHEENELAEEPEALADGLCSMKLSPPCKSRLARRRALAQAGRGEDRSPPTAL

PRKAA1 or PRKAA2 (rat) = settings: accession and sequence are those of the human protein
[1] = biological target: STK11 CAB39 STRADA (human) (UniProt Q9Y376+Q7RTN6+Q15831)
PRKACA (human) = PRKACA (human) (UniProt P17612)
PRKCZ (human) = PRKCZ (human) (UniProt Q05513)
TTK (human) = TTK (human) (UniProt P33981)

Sequence of IKBKB (human) (O14920 whole entry, looked up): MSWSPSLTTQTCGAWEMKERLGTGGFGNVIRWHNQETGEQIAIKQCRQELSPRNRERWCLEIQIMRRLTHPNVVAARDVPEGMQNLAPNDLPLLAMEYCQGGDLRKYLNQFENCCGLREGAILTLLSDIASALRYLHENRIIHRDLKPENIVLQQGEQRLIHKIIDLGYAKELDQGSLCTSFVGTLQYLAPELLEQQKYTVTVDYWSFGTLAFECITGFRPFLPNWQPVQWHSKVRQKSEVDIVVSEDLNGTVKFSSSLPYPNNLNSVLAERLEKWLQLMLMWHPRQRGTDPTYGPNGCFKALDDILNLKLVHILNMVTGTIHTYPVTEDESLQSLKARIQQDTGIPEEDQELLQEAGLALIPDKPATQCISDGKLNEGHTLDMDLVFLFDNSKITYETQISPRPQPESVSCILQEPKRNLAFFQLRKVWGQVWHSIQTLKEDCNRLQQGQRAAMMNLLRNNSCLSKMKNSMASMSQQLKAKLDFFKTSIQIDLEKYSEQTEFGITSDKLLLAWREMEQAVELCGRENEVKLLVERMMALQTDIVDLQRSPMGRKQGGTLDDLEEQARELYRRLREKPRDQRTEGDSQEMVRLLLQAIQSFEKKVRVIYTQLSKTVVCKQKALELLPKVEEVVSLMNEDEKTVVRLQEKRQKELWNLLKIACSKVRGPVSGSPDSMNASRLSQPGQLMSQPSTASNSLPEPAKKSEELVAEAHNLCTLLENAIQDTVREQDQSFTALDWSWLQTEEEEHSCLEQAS

Oc1ccc2ccccc2c1SSc1c(O)ccc2ccccc12
residual activity (EEF2K (human); compound 1.0 µM): 83% | residual activity (EEF2K (human); compound 5.0 µM): 60% | residual activity (EEF2K (human); compound 10.0 µM): 89% | residual activity (INSRR (human); compound 1.0 µM): 84% | residual activity (INSRR (human); compound 5.0 µM): 47% | residual activity (INSRR (human); compound 10.0 µM): 83% | residual activity (MAP2K2 (human); compound 1.0 µM): 90% | residual activity (MAP2K2 (human); compound 5.0 µM): 48% | residual activity (MAP3K9 (human); compound 1.0 µM): 16% | residual activity (MAP3K9 (human); compound 5.0 µM): 4% | residual activity (IKBKB (human); compound 1.0 µM): 33% | residual activity (IKBKB (human); compound 5.0 µM): 6% | residual activity (IKBKB (human); compound 10.0 µM): 68% | residual activity (NTRK1 (human); compound 1.0 µM): 63% | residual activity (NTRK1 (human); compound 5.0 µM): 19% | residual activity (CSK (human); compound 1.0 µM): 102% | residual activity (CSK (human); compound 5.0 µM): 109% | residual activity (CSK (human); compound 10.0 µM): 99% | residual activity (MYLK (human); compound 1.0 µM): 74% | residual activity (MYLK (human); compound 5.0 µM): 51% | residual activity (MYLK (human); compound 10.0 µM): 87% | residual activity (ROCK2 (rat); compound 1.0 µM): 95% | residual activity (ROCK2 (rat); compound 5.0 µM): 87% | residual activity (ROCK2 (rat); compound 10.0 µM): 78% | residual activity (DAPK1 (human); compound 1.0 µM): 101% | residual activity (DAPK1 (human); compound 5.0 µM): 83% | residual activity (MELK (human); compound 1.0 µM): 13% | residual activity (MELK (human); compound 5.0 µM): 14% | residual activity (MELK (human); compound 10.0 µM): 97% | residual activity (CDK2 CCNA2 (human); compound 1.0 µM): 101% | residual activity (CDK2 CCNA2 (human); compound 5.0 µM): 106% | residual activity (CDK2 CCNA2 (human); compound 10.0 µM): 88% | residual activity (MAPK13 (human); compound 1.0 µM): 102% | residual activity (MAPK13 (human); compound 5.0 µM): 102% | residual activity (MAPK13 (human); compound 10.0 µM): 104% | residual activity (MINK1 (human); compound 1.0 µM): 3% | residual activity (MINK1 (human); compound 5.0 µM): 1% | residual activity (PHKG1 (human); compound 1.0 µM): 100% | residual activity (PHKG1 (human); compound 5.0 µM): 103% | residual activity (PHKG1 (human); compound 10.0 µM): 108% | residual activity (MARK4 (human); compound 1.0 µM): 47% | residual activity (MARK4 (human); compound 5.0 µM): 41% | residual activity (MAPK1 (human); compound 1.0 µM): 56% | residual activity (MAPK1 (human); compound 5.0 µM): 39% | residual activity (MAPK1 (human); compound 10.0 µM): 101% | residual activity (RPS6KA1 KD1 KD2 (human); compound 1.0 µM): 78% | residual activity (RPS6KA1 KD1 KD2 (human); compound 5.0 µM): 62% | residual activity (MKNK2 (human); compound 1.0 µM): 97% | residual activity (MKNK2 (human); compound 5.0 µM): 78% | residual activity (MKNK2 (human); compound 10.0 µM): 87% | residual activity (CSNK2A1 (human); compound 1.0 µM): 104% | residual activity (CSNK2A1 (human); compound 5.0 µM): 97% | residual activity (CSNK2A1 (human); compound 10.0 µM): 127% | residual activity (FGFR1 (human); compound 1.0 µM): 24% | residual activity (FGFR1 (human); compound 5.0 µM): 4% | residual activity (FGFR1 (human); compound 10.0 µM): 29% | residual activity (MAPKAPK3 (human); compound 1.0 µM): 26% | residual activity (MAPKAPK3 (human); compound 5.0 µM): 10% | residual activity (SRC (human); compound 1.0 µM): 42% | residual activity (SRC (human); compound 5.0 µM): 17% | residual activity (SRC (human); compound 10.0 µM): 89% | residual activity (EPHB3 (human); compound 1.0 µM): 86% | residual activity (EPHB3 (human); compound 5.0 µM): 69% | residual activity (EPHB3 (human); compound 10.0 µM): 26% | residual activity (LCK (mouse); compound 1.0 µM): 99% | residual activity (LCK (mouse); compound 5.0 µM): 99% | residual activity (LCK (mouse); compound 10.0 µM): 90% | residual activity (AURKB (human); compound 1.0 µM): 2% | residual activity (AURKB (human); compound 5.0 µM): 2% | residual activity (AURKB (human); compound 10.0 µM): 5% | residual activity (ERBB4 (human); compound 1.0 µM): 62% | residual activity (ERBB4 (human); compound 5.0 µM): 49% | residual activity (CHEK2 (human); compound 1.0 µM): 58% | residual activity (CHEK2 (human); compound 5.0 µM): 34% | residual activity (CHEK2 (human); compound 10.0 µM): 94% | residual activity (GSK3B (human); compound 1.0 µM): 68% | residual activity (GSK3B (human); compound 5.0 µM): 30% | residual activity (GSK3B (human); compound 10.0 µM): 106% | residual activity (MKNK1 (human); compound 1.0 µM): 88% | residual activity (MKNK1 (human); compound 5.0 µM): 76% | residual activity (MKNK1 (human); compound 10.0 µM): 100% | residual activity (PRKAA1 or PRKAA2 (rat); compound 1.0 µM): 55% | residual activity (PRKAA1 or PRKAA2 (rat); compound 5.0 µM): 27% | residual activity (PRKAA1 or PRKAA2 (rat); compound 10.0 µM): 90% | residual activity ([1]; compound 1.0 µM): 60% | residual activity ([1]; compound 5.0 µM): 17% | residual activity (PRKACA (human); compound 1.0 µM): 101% | residual activity (PRKACA (human); compound 5.0 µM): 92% | residual activity (PRKACA (human); compound 10.0 µM): 100% | residual activity (PRKCZ (human); compound 1.0 µM): 44% | residual activity (PRKCZ (human); compound 5.0 µM): 11% | residual activity (PRKCZ (human); compound 10.0 µM): 39% | residual activity (TTK (human); compound 1.0 µM): 68% | residual activity (TTK (human); compound 5.0 µM): 40%
